Set-up in all cases: scale not given: the % may be the effect or the level left
In assay [1] the target is Wee1-like protein kinase (Homo sapiens) (UniProt P30291). Nature of the assay: Inhibition of human WEE1 assessed as enzyme activity at 1 uM using CDK1 (D146N)/cyclin B1 as substrate preincubated for 20 mins followed by [gamma-33P]-ATP addition and measured after 120 mins by radiometric Hot-SpotSM Kinase assay relative to control.
Assay [2] deals with T1, 3-phosphoinositide-dependent protein kinase 1 (Homo sapiens) (UniProt O15530).
T1 sequence (whole entry): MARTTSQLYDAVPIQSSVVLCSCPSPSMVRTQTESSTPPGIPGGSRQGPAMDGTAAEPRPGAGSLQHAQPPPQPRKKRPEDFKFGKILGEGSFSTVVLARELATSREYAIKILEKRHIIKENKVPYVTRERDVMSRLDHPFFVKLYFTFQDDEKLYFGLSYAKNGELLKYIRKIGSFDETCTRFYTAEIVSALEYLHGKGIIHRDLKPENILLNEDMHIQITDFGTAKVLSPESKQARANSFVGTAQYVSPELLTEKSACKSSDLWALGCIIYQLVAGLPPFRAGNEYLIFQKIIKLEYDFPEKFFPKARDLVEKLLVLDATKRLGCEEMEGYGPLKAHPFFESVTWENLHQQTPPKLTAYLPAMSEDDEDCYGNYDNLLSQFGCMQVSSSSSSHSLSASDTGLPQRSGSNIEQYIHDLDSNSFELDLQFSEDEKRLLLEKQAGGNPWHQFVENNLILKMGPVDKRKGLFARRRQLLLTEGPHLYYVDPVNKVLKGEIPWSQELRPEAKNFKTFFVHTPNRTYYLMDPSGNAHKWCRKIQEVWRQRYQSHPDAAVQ
As to the kind of experiment: Inhibition of human PDK1 assessed as enzyme activity at 1 uM using KTFCGTPEYLAPEVRREPRILSEEEQEMFRDFDYIADWC as substrate preincubated for 20 mins followed by [gamma-33P]-ATP addition and measured after 120 mins by radiometric Hot-SpotSM Kinase assay relative to control.

For assay [3], the target named is Calcium/calmodulin-dependent protein kinase type 1G (Homo sapiens) (UniProt Q96NX5). Nature of the assay: Inhibition of human CAMK1g assessed as enzyme activity at 1 uM using KKALRRQETVDAL as substrate preincubated for 20 mins followed by [gamma-33P]-ATP addition and measured after 120 mins by radiometric Hot-SpotSM Kinase assay relative to control.
Assay [4] addresses Death-associated protein kinase 1 (Homo sapiens) (UniProt P53355). Nature of the assay: Inhibition of human DAPK1 assessed as enzyme activity at 1 uM using KKLNRTLSFAEPG as substrate preincubated for 20 mins followed by [gamma-33P]-ATP addition and measured after 120 mins by radiometric Hot-SpotSM Kinase assay relative to control.
Assay [5] deals with T2, Protein kinase C epsilon type (Homo sapiens) (UniProt Q02156).
T2 sequence (whole entry): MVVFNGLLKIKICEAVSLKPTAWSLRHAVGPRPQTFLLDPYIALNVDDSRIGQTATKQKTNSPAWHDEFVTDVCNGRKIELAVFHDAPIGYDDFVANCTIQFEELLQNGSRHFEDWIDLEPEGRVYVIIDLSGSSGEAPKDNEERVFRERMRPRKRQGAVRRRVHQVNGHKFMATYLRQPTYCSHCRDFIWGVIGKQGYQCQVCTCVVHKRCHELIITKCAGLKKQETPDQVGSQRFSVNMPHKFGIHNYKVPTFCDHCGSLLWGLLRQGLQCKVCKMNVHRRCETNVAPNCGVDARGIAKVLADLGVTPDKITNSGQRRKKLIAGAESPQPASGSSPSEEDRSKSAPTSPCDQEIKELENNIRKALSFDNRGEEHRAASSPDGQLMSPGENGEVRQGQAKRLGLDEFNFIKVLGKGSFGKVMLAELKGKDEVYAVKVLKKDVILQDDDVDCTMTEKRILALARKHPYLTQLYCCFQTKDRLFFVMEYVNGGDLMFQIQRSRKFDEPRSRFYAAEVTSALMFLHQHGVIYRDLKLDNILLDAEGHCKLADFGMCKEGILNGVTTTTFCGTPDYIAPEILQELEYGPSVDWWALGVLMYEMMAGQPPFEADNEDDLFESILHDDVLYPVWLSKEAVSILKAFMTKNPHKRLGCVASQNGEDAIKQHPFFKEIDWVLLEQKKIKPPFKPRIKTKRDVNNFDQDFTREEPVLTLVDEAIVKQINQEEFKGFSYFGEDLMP
Nature of the assay: Inhibition of human PKCepsilon assessed as enzyme activity at 1 uM using ERMRPRKRQGSVRRRV as substrate preincubated for 20 mins followed by [gamma-33P]-ATP addition and measured after 120 mins by radiometric Hot-SpotSM Kinase assay relative to control.

Assay [6] concerns the target Tyrosine-protein kinase CSK (Homo sapiens) (UniProt P41240). Nature of the assay: Inhibition of human CSK assessed as enzyme activity at 1 uM using poly[Glu:Tyr] (4:1) as substrate preincubated for 20 mins followed by [gamma-33P]-ATP addition and measured after 120 mins by radiometric Hot-SpotSM Kinase assay relative to control.
In assay [7] the target is Calcium/calmodulin-dependent protein kinase kinase 2 (Homo sapiens) (UniProt Q96RR4). As to the kind of experiment: Inhibition of human CAMKK2 assessed as enzyme activity at 1 uM using myelin basic protein as substrate preincubated for 20 mins followed by [gamma-33P]-ATP addition and measured after 120 mins by radiometric Hot-SpotSM Kinase assay relative to control.
Assay [8] concerns the target T3, Dual specificity tyrosine-phosphorylation-regulated kinase 3 (Homo sapiens) (UniProt O43781).
T3 sequence (whole entry): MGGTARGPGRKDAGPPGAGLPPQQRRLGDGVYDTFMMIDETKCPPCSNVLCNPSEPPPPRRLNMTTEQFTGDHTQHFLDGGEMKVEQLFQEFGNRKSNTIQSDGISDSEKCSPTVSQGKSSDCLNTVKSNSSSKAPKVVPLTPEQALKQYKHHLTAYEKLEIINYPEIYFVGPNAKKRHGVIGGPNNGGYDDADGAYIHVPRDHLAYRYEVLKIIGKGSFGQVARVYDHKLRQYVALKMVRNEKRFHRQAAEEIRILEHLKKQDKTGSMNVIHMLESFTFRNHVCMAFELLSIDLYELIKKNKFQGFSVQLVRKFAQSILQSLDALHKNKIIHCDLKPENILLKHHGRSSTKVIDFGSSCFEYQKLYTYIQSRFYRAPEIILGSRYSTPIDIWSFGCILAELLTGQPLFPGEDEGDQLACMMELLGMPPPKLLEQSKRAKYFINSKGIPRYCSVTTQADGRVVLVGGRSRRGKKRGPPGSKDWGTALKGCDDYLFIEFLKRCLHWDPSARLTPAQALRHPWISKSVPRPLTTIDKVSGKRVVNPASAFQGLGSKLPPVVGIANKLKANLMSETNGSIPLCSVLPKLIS
Nature of the assay: Inhibition of human DYRK3 assessed as enzyme activity at 1 uM using RRRFRPASPLRGPPK as substrate preincubated for 20 mins followed by [gamma-33P]-ATP addition and measured after 120 mins by radiometric Hot-SpotSM Kinase assay relative to control.

Each structure is given as a SMILES string.

We go through three compounds from ChEMBL document CHEMBL5715954, “Silencing c-Myc translation as a therapeutic strategy through targeting PI3Kδ and CK1ε in hematological malignancies” (Blood, 2017).

Wee1-like protein kinase (Homo sapiens), sequence (P30291 whole entry, looked up): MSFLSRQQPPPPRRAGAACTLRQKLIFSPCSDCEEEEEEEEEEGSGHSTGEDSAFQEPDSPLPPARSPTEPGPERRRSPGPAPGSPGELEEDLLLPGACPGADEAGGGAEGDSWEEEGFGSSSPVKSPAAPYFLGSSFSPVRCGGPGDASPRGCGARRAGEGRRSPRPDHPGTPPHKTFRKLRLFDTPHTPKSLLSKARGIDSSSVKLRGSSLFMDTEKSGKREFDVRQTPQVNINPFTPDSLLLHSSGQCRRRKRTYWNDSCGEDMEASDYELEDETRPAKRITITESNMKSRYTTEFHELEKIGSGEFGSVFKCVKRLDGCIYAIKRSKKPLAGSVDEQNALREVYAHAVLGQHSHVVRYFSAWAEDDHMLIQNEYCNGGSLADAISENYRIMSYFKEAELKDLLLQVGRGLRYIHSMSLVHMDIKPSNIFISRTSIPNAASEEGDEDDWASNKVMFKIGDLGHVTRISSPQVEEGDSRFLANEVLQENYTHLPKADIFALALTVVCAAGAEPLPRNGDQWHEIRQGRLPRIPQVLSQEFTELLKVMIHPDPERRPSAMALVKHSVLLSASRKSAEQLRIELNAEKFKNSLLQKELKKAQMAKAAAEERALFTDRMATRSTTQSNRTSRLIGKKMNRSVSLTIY
Tyrosine-protein kinase CSK (Homo sapiens), sequence (P41240 2-450 limits assumed): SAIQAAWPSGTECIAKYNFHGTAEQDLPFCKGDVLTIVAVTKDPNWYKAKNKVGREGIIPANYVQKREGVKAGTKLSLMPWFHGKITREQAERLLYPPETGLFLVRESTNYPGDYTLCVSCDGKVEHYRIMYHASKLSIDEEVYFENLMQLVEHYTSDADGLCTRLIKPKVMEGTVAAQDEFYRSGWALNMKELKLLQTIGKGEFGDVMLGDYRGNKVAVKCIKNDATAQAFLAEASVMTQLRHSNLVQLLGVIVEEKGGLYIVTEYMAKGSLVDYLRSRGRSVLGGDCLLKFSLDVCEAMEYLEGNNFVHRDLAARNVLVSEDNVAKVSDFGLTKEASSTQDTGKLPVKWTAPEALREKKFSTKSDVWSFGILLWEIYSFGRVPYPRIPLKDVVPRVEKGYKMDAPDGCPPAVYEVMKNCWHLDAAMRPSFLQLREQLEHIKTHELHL
Death-associated protein kinase 1 (Homo sapiens), sequence (P53355 whole entry, looked up): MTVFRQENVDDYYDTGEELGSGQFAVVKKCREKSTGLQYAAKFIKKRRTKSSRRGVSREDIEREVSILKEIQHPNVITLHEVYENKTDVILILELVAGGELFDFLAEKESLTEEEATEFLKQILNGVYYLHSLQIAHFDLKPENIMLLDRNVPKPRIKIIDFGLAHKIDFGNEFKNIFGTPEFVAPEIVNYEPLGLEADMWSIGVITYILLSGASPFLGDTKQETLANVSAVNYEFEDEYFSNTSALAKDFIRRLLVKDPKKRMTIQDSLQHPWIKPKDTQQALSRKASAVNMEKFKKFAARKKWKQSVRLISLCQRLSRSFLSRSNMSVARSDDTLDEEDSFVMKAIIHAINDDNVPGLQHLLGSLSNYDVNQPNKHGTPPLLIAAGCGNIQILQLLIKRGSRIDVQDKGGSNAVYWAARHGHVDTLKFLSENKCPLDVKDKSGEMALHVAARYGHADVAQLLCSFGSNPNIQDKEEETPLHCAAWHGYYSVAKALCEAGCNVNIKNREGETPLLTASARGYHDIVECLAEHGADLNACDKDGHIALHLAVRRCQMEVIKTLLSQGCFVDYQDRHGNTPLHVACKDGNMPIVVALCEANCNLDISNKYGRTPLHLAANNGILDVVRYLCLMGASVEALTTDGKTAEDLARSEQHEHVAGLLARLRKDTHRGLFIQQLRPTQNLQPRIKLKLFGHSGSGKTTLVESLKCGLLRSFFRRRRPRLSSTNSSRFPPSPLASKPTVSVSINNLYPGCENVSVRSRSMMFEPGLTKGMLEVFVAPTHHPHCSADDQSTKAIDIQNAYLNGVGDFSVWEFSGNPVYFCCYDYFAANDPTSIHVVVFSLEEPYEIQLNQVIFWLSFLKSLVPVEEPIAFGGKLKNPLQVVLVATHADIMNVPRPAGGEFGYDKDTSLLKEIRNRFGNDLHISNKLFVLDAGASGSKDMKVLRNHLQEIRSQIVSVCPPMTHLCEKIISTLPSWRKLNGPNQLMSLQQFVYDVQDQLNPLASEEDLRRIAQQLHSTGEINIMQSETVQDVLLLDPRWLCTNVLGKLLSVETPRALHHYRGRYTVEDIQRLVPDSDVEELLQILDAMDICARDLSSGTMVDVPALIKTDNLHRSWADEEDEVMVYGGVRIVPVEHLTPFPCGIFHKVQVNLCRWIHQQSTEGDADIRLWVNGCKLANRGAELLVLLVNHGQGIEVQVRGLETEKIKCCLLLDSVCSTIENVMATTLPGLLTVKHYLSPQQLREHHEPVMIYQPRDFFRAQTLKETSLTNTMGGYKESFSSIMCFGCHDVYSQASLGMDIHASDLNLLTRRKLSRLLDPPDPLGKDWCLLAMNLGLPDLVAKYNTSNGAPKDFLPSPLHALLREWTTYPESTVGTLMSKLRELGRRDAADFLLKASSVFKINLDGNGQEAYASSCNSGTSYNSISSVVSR
Calcium/calmodulin-dependent protein kinase type 1G (Homo sapiens), sequence (Q96NX5 whole entry): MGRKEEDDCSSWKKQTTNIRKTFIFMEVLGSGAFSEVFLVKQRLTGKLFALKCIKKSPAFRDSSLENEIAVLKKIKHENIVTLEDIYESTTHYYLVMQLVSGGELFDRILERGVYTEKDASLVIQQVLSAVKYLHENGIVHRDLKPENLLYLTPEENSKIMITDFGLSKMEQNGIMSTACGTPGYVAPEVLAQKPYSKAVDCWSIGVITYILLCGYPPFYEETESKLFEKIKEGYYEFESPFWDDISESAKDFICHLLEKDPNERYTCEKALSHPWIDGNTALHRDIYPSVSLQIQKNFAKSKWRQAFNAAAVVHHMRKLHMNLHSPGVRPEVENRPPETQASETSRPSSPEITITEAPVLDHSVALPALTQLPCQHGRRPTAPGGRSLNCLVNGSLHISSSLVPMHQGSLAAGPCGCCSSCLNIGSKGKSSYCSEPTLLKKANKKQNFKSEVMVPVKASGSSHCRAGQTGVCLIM
Calcium/calmodulin-dependent protein kinase kinase 2 (Homo sapiens), sequence (Q96RR4 2-588 limits assumed): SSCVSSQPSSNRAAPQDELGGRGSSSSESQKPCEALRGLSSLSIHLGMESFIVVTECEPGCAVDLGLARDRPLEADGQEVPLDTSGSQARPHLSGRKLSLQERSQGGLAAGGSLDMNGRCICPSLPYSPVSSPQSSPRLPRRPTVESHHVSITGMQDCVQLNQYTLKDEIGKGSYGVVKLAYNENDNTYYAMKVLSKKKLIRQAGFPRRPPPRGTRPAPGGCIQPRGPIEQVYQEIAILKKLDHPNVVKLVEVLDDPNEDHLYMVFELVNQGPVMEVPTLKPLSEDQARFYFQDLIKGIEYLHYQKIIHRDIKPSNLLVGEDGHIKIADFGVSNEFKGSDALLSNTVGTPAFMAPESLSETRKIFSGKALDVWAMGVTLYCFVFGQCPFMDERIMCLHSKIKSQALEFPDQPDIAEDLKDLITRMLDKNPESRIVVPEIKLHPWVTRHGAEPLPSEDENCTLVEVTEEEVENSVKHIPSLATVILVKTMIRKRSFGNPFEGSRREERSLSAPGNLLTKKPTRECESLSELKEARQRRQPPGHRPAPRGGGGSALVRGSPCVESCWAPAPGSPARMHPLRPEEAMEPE

Take `C[C@H](Nc1ncnc2nc[nH]c12)c1cc2cccc(Cl)c2c(=O)n1-c1ccccc1`: the Activity in assay [1] was determined as 87.3%; in assay [2], 94.6%; in assay [3], 99.1%; in assay [4], 97%; in assay [5], 107%; in assay [6], 97.9%. Besides, the Activity in assay [7] was found to be 96.6%; in assay [8], 97.8%.
For the compound `CC[C@H](Nc1ncnc2[nH]cnc12)c1nc2cccc(F)c2c(=O)n1-c1ccccc1`, the Activity worked out at 96.7% in assay [1]; 94.6% in assay [2]; 102% in assay [3]; 95% in assay [4]; 108% in assay [5]; 99.1% in assay [6]. Besides, the Activity in assay [7] stood at 106%; in assay [8], 96.9%.
Regarding `CC(C)Oc1ccc(-c2nn([C@@H](C)c3oc4ccc(F)cc4c(=O)c3-c3cccc(F)c3)c3ncnc(N)c23)cc1F` [UMBRALISIB], the Activity in assay [1] turned out to be 106%; in assay [2] it was 92.8%; in assay [3] it was 98.9%; in assay [4], 99.7%; in assay [5], 109%; in assay [6], 94.1%. In addition, the Activity in assay [7] was determined as 98.5%; in assay [8] it was 96.9%.
